According to patent publication US7943606B2, “Compositions and methods to control abnormal cell growth” (CanCure Laboratories, LLC, priority 2005, dated 2011):
Where a name gives a salt, the structure may show the parent alone. Read-outs that look alike come from different tables or passages of the source.

Columns and labels:
MB-231 cells = experiment: Viability of MB-231 breast cancer cells (MTT assay); assay type: cell-based, human
Description: To quantify cell death, around the time when significant and characteristic morphological changes took place, cells were pulse-labeled for 10 minutes with [^3H]thymidine to measure DNA activity as described elsewhere [Tomono, M. and Kiss, Z. (1995), “Ethanol enhances the stimulatory effects of insulin and insulin-like growth factor-I on DNA synthesis in NIH 3T3 fibroblasts,” Biochem. Biophys. Res. Commun. 208, 63-67]. Also, cells were collected as suspensions using trypsin, an established method in cell biology, followed by re-plating of cells in fresh tissue culture medium. If no viable cells were obtained after one week in culture, it meant that the cells at the time of re-plating were dead. Survival values obtained with untreated cells were considered 100%. For the determination of relative number of viable cells after treatments, in most cases the MTT assay was used. […]
(§1) NIH 3T3, MEL-28, MEL-24, CaOV-3, ZR-75-1, and T47D cells were cultured as described above. […] The inhibitory effects of CC compounds on cell proliferation are expressed as percent decrease compared to untreated cell cultures (the greater the number, the greater the inhibitory effect of the CC compound). […]

PC-3 cells = experiment: Proliferation of PC-3 prostate cancer cells; assay type: cell-based; details: Homo sapiens, similar comparative study (100 μM, 72 hours)
CaOV-3 cells = experiment: Viability of CaOV-3 ovarian cancer cells (MTT assay); assay type: cell-based, human; details: for inhibition at 100 µM / IC50: Homo sapiens, Caov-3, 72 hours; for inhibition at 100 µM: read-out: Decrease in cell number (maximal decrease = 100%), CaOV-3
Description: (§2) To quantify cell death, around the time when significant and characteristic morphological changes took place, cells were pulse-labeled for 10 minutes with [^3H]thymidine to measure DNA activity as described elsewhere [Tomono, M. and Kiss, Z. (1995), “Ethanol enhances the stimulatory effects of insulin and insulin-like growth factor-I on DNA synthesis in NIH 3T3 fibroblasts,” Biochem. Biophys. Res. Commun. 208, 63-67]. Also, cells were collected as suspensions using trypsin, an established method in cell biology, followed by re-plating of cells in fresh tissue culture medium. If no viable cells were obtained after one week in culture, it meant that the cells at the time of re-plating were dead. Survival values obtained with untreated cells were considered 100%. For the determination of relative number of viable cells after treatments, in most cases the MTT assay was used. This calorimetric assay is based on the ability of living cells, but not dead cells, to reduce 3-(4,5-dimethyl thiazol-2-yl)-2,5-diphenyltetrazolium bromide [Carmichael, J, De Graff, W. G., Gazdar, A. F., Minna, J. D. and Mitchell, J. B. (1987), “Evaluation of tetrazolium-based semi-automated calorimetric assay: Assessment of chemosensitivity testing,” Cancer Res. 47, 936-942]. For this assay, cells were plated in 96-well plates, and the MTT assay was performed both in untreated and treated cell cultures. The MTT assay also was performed at the start of treatments to allow assessment of proliferation rates in the control and treated cell cultures.
(§3) NIH3T3, T47D, A-431, HT-29, and MEL-28 cells were cultured as indicated earlier. CaOV-3 human ovarian cancer cells were cultured in DMEM containing 10% FBS. ZR-75-1 human estrogen receptor-positive breast cancer cells were maintained in RPMI 1640 medium supplemented with 10% FBS. HTB-157 human fetal fibroblasts, MEL-24 human malignant melanoma cells, Hep G2 human hepatoblastoma cells, and CaCO-2 human colon adenocarcinoma cells were maintained in Eagles's MEM containing 10% FBS. MB-231 human estrogen receptor-negative breast cancer cells were maintained in Leibovitz's L-15 medium supplemented with 10% FBS. Cells were seeded into 96-well plates and treated at ˜70-90% confluency. Two hours prior to treatments the medium was changed for fresh 10% serum medium, and then the cells were incubated for 10 days in the absence (□) or presence of 50 μM CCDTHT ? or 100 μM CCDTHT (▪). The medium was changed and the cells were re-treated on days 3 and 6. The MTT assay was used to determine cell viability on day 10. The data, shown in FIG. 6, are the mean±std. dev. of 8 incubations in one experiment. (The experiment was repeated twice with similar results).
The MRC-5 cell line is derived from normal lung tissue of a […] fetus. MRC-5 cells were maintained and treated in Eagles Medium with Hanks' BSS containing 10% fetal bovine serum. The T47D cells were maintained and treated in RPMI 1640 medium supplemented with 0.2 IU bovine insulin and 10% fetal bovine serum. The CaOV-3 human ovarian cancer cells were cultured in Dulbecco's modified Eagle's medium containing 10% fetal bovine serum. The cells were seeded in 96-well plates either at 10,000 cells per well or 30,000 cells per well to examine the antiproliferative and cytotoxic effects of various CC compounds, respectively. The cells were incubated for 24 hours, then the medium was changed followed by the treatments of cultures 2 hours after the medium change. At this point, cell cultures seeded at 10,000 cells per well and 30,000 cells per well were 25-35% and 80-90% confluent, respectively. Incubations were continued for 72 hours followed by the MTT assay. The data, shown in TABLE 2, indicate the inhibitory concentrations of CC compounds (IC50) required for 50% decrease in the number of viable cells. These numbers are calculated from the mean of 4 incubations in one experiment (the experiment was repeated once with similar results). […]

A549 cells = experiment: Viability of A549 lung carcinoma cells (MTT assay); assay type: cell-based, human
Description: To quantify cell death, around the time when significant and characteristic morphological changes took place, cells were pulse-labeled for 10 minutes with [^3H]thymidine to measure DNA activity as described elsewhere [Tomono, M. and Kiss, Z. (1995), “Ethanol enhances the stimulatory effects of insulin and insulin-like growth factor-I on DNA synthesis in NIH 3T3 fibroblasts,” Biochem. Biophys. Res. Commun. 208, 63-67]. Also, cells were collected as suspensions using trypsin, an established method in cell biology, followed by re-plating of cells in fresh tissue culture medium. If no viable cells were obtained after one week in culture, it meant that the cells at the time of re-plating were dead. […]
The NIH 3T3 (normal) mouse fibroblast, A431 human epidermoid adenocarcinoma, and MCF-7 human breast cancer cells were cultured in DMEM medium containing 10% FBS. […] The values, shown in FIGS. 5A-5F and expressed as percent decrease in viability compared to the untreated control cells, are the mean±std. dev. of 8 incubations in one experiment. […]
as §1

HT-29 cells = experiment: Viability of HT-29 colon adenocarcinoma cells (MTT assay); assay type: cell-based, human; details: for inhibition at 100 µM: HT-29, similar comparative study (100 μM, 72 hours), read-out: inhibition of proliferation, HT-29
Description: as §2
(§4) The NIH 3T3 (normal) mouse fibroblast, A431 human epidermoid adenocarcinoma, and MCF-7 human breast cancer cells were cultured in DMEM medium containing 10% FBS. The MEL-28 human melanoma cells were cultured in MEM medium containing 10% FBS. The HT-29 human colon adenocarcinoma cells were cultured in McCoy's 5a medium containing 10% FBS. The A549 human lung carcinoma cells were maintained in Ham's F12K medium containing 10% FBS. Cells were seeded into 96-well plates and treated at ˜70-90% confluency. Two hours before treatments the medium was changed for fresh 10% serum medium, and then the cells were incubated for 72 hours in the presence of 0-200 μM of CCompound1 (●) or CCompound3 (CCDTHT) (▴), as indicated. The MTT assay was used to determine cell viability after treatments. The values, shown in FIGS. 5A-5F and expressed as percent decrease in viability compared to the untreated control cells, are the mean±std. dev. of 8 incubations in one experiment. Similar results were obtained in another experiment.
as §3, with “The MTT assay was used to determine cell viability on day 10. The data, shown in FIG. 6, are the mean±std. dev. of 8 incubations in one experiment. (The experiment was repeated twice with similar results).” left out

A-431 cells = experiment: Viability of A-431 epidermoid adenocarcinoma cells (MTT assay); assay type: cell-based, human; details: for inhibition at 100 µM: Homo sapiens, A-431, similar comparative study (100 μM, 72 hours), read-out: inhibition of proliferation, A-431
Description: as §2, §4, §3
NIH 3T3, MEL-28, MEL-24, CaOV-3, ZR-75-1, and T47D cells were cultured as described above. The OVCAR human ovarian cancer cells were cultured in DMEM containing 10% FBS. Cells were seeded into 96-well plates and used at ˜60-80% confluency. […]

3A-SubE cells = experiment: Viability of 3A-SubE post crisis placenta cells (MTT assay); assay type: cell-based; details: 50 μM 48 hours, then 96 hours without CCDTHT

CC[N+](C)(C)CCCOCc1ccc2sc3ccccc3c(=O)c2c1 [CCcompound11, N,N-Dimethyl-N-ethyl-3-[(9-oxo-9H-thioxanthen-2-yl)methoxy]-propane-1-aminium iodide] was tested, and the inhibition at 100 µM (MB-231 cells; Homo sapiens, similar comparative study (100 μM, 72 hours), read-out: inhibition of proliferation, MB-231) was 75%, the inhibition at 100 µM (PC-3 cells) was 54 to 55% and the inhibition at 100 µM (CaOV-3 cells) was 66%. The inhibition at 100 µM (A549 cells; Homo sapiens, A549, similar comparative study (100 μM, 72 hours), read-out: inhibition of proliferation, A549) was 68% and the inhibition at 100 µM (HT-29 cells; Homo sapiens) was 63 to 71%.

For CC[N+](CC)(CCCO)Cc1ccc2sc3ccccc3c(=O)c2c1 [CCcompound16, 3-Hydroxy-N,N-diethyl-N-[(9-oxo-9H-thioxanthen-2-yl)methyl]-propane-1-aminium bromide], the inhibition at 100 µM (CaOV-3 cells) was 12%.

C[N+](C)(CCCO)Cc1ccc2sc3ccccc3c(=O)c2c1 [CCcompound15, 3-Hydroxy-N,N-dimethyl-N-[(9-oxo-9H-thioxanthen-2-yl)methyl]propane-1-aminium bromide] was tested, and the inhibition at 100 µM (CaOV-3 cells) was 28%.

CC[N+](CC)(CC)CCCOCc1ccc2sc3ccccc3c(=O)c2c1 [CCcompound9, N,N,N-Triethyl-3-[(9-oxo-9H-thioxanthen-2-yl)methoxy]-propane-1-aminium iodide] showed an inhibition at 100 µM (CaOV-3 cells) of 45% and an inhibition at 100 µM (A-431 cells) of 68 to 74%.

With CC[N+](C)(CC)CCOCc1ccc2sc3ccccc3c(=O)c2c1.[I-] [CCDTHT, N,N-diethyl-N-methyl-2-[(9-oxo-9H-thioxanthen-2-yl)methoxy]-ethanaminium iodide] the “sensitivity to the inhibitory actions, MB-231” value (MB-231 cells; 50 and 100 μM, 10 days, MTT) was “moderately sensitive”, the inhibition at 100 µM (PC-3 cells) was 54 to 55% and the “sensitivity to the inhibitory actions, CaOV-3” value (CaOV-3 cells; 50 and 100 μM, 10 days, MTT) was “very sensitive”. It also gave an inhibition at 100 µM (CaOV-3 cells) of 84%, an IC50 (CaOV-3 cells; 10,000 cells per well (25-35% confluent), MTT, read-out: IC50 values, Antiproliferative, CaOV-3) of 38 µM and an IC50 (CaOV-3 cells; 30,000 cells per well (80-90% confluent), MTT, read-out: IC50 values, Cytotoxic, CaOV-3) of 39 µM. For the same molecule, the “reversibility: proliferation in fresh medium after treatment, 3A-SubE” value (3A-SubE cells) was “not sufficient to suppress proliferation”, the “reduction of cell numbers, A-549, CCDTHT versus CCompound1” value (A549 cells; 0-200 μM, 72 hours, MTT) was “clearly more effective than CCompound1” and the “reduction of cell numbers, HT-29, CCDTHT versus CCompound1” value (HT-29 cells; 0-200 μM, 72 hours, MTT) was “clearly more effective than CCompound1”. The “decrease in the number of viable cells versus 0.5 mM HC-3, HT-29” value (HT-29 cells; 100 μM, 72 hours, MTT) was “much greater decreases in the number of viable cells compared to 0.5 mM HC-3”, the cytotoxicity at 100 µM (HT-29 cells; Homo sapiens, HT-29, 240 h, 100 μM, 10 days, MTT, read-out: reduction in the number of viable cells, HT-29) was no more than 50% and the “decrease in viability, A-431” value (A-431 cells; 0-200 μM, 72 hours, MTT) was “similarly large effects”. For the same molecule, the “sensitivity to the inhibitory actions, A-431” value (A-431 cells; 50 and 100 μM, 10 days, MTT) was “very sensitive” and the inhibition at 100 µM (A-431 cells) was 68 to 74%.

With CC[N+](CC)(CCO)Cc1ccc2sc3ccccc3c(=O)c2c1 [CCcompound14, 2-Hydroxy-N,N-Diethyl-N-[(9-oxo-9H-thioxanthen-2-yl)methyl]-ethanaminium bromide] the inhibition at 100 µM (CaOV-3 cells) was 69% and the inhibition at 100 µM (HT-29 cells; Homo sapiens) was 63 to 71%.

Molecule C[N+](C)(CCO)Cc1ccc2sc3ccccc3c(=O)c2c1 [CCcompound13, 2-Hydroxy-N,N-dimethyl-N-[(9-oxo-9H-thioxanthen-2-yl)methyl]-ethanaminium bromide] has an inhibition at 100 µM (CaOV-3 cells) of 53%.

With CC[NH+](CC)CCCOCc1ccc2sc3ccccc3c(=O)c2c1 [CCcompound12, 2-{[3-(Diethylamino)propoxy]meth-yl}-9H-thioxanthen-9-one hydrochloride] the inhibition at 100 µM (CaOV-3 cells) was 80% and the inhibition at 100 µM (A-431 cells) was 68 to 74%.

CC[N+](C)(CC)CCCOCc1ccc2sc3ccccc3c(=O)c2c1 [CCcompound10, N,N-Diethyl-N-methyl-3-[(9-oxo-9H-thioxanthen-2-yl)methoxy]-propane-1-aminium iodide] was tested, and the inhibition at 100 µM (CaOV-3 cells) was 45%.
